Experimental data reported in the NIST ThermoML archive (doi:10.1021/je9008574).
Several values for one entry are separate records, joined by “and”; a condition that tells them apart may be missing. Equal entries are not always repeated. ± gives the expanded uncertainty stated by the source.

Settings: Crystal

[Cl-].[Cl-].[Ga+2] [gallium(II) chloride]
Settings | vapor or sublimation pressure
372 K | 4.571e-05 ± 9.2e-06 kPa
374 K | 3.09e-05 ± 6.2e-06 kPa
375 K | 6.166e-05 ± 1.2e-05 kPa and 4.571e-05 ± 9.2e-06 kPa and 3.388e-05 ± 6.8e-06 kPa
378 K | 4.571e-05 ± 9.2e-06 kPa
378.5 K | 6.166e-05 ± 1.2e-05 kPa
379 K | 9.12e-05 ± 1.8e-05 kPa
381 K | 7.762e-05 ± 1.6e-05 kPa
381.5 K | 6.761e-05 ± 1.4e-05 kPa
382.5 K | 9.12e-05 ± 1.8e-05 kPa
383.5 K | 0.0001202 ± 2.4e-05 kPa
384 K | 0.0001202 ± 2.4e-05 kPa and 0.000123 ± 2.5e-05 kPa
385 K | 0.0001072 ± 2.2e-05 kPa
386 K | 0.0001514 ± 3e-05 kPa and 0.0001778 ± 3.6e-05 kPa
386.5 K | 0.000123 ± 2.5e-05 kPa and 0.0001023 ± 2.1e-05 kPa
387 K | 0.0001862 ± 3.7e-05 kPa
387.5 K | 0.000123 ± 2.5e-05 kPa
388.5 K | 0.0001778 ± 3.6e-05 kPa
389 K | 0.0002089 ± 4.2e-05 kPa
390 K | 0.0002399 ± 4.8e-05 kPa
390.5 K | 0.0001549 ± 3.1e-05 kPa
391 K | 0.0001698 ± 3.4e-05 kPa and 0.0001862 ± 3.7e-05 kPa
391.5 K | 0.0002399 ± 4.8e-05 kPa and 0.0002754 ± 5.5e-05 kPa
392 K | 0.000302 ± 6e-05 kPa
393 K | 0.0001862 ± 3.7e-05 kPa
393.5 K | 0.000302 ± 6.1e-05 kPa
394 K | 0.0002455 ± 4.9e-05 kPa and 0.0003311 ± 6.6e-05 kPa and 0.0002138 ± 4.3e-05 kPa
395 K | 0.0002754 ± 5.5e-05 kPa
396 K | 0.0002951 ± 5.9e-05 kPa
396.5 K | 0.000309 ± 6.2e-05 kPa
397.5 K | 0.000389 ± 7.8e-05 kPa and 0.0005248 ± 0.00011 kPa
398 K | 0.0002951 ± 5.9e-05 kPa and 0.0004169 ± 8.3e-05 kPa and 0.0004467 ± 8.9e-05 kPa
398.5 K | 0.0004786 ± 9.6e-05 kPa
399 K | 0.0003388 ± 6.8e-05 kPa and 0.0004786 ± 9.6e-05 kPa
399.5 K | 0.0003802 ± 7.6e-05 kPa and 0.0003981 ± 8e-05 kPa and 0.000302 ± 6.1e-05 kPa
401 K | 0.0005129 ± 0.0001 kPa
402 K | 0.0007244 ± 0.00014 kPa and 0.0007413 ± 0.00015 kPa
402.5 K | 0.0006607 ± 0.00013 kPa and 0.000389 ± 7.8e-05 kPa
403 K | 0.0006607 ± 0.00013 kPa and 0.0004786 ± 9.6e-05 kPa
403.5 K | 0.0005495 ± 0.00011 kPa
404 K | 0.0007762 ± 0.00016 kPa
405 K | 0.0006761 ± 0.00014 kPa and 0.0005888 ± 0.00012 kPa
405.5 K | 0.0007762 ± 0.00016 kPa
406 K | 0.000955 ± 0.00019 kPa and 0.0006761 ± 0.00014 kPa
406.5 K | 0.0008913 ± 0.00018 kPa
407.5 K | 0.000955 ± 0.00019 kPa and 0.0007762 ± 0.00016 kPa
408 K | 0.0007079 ± 0.00014 kPa
409 K | 0.0007762 ± 0.00016 kPa and 0.001023 ± 0.0002 kPa and 0.0007079 ± 0.00014 kPa
410 K | 0.001202 ± 0.00024 kPa
410.5 K | 0.000871 ± 0.00017 kPa and 0.001259 ± 0.00025 kPa and 0.001072 ± 0.00021 kPa
411 K | 0.001023 ± 0.0002 kPa
411.5 K | 0.001318 ± 0.00026 kPa and 0.001549 ± 0.00031 kPa
413 K | 0.0009772 ± 0.0002 kPa and 0.001445 ± 0.00029 kPa
413.5 K | 0.001514 ± 0.0003 kPa and 0.001445 ± 0.00029 kPa
414 K | 0.001202 ± 0.00024 kPa and 0.001259 ± 0.00025 kPa and 0.001072 ± 0.00021 kPa
414.5 K | 0.001288 ± 0.00026 kPa
415 K | 0.002138 ± 0.00043 kPa
415.5 K | 0.001259 ± 0.00025 kPa and 0.001905 ± 0.00038 kPa and 0.001862 ± 0.00037 kPa
416 K | 0.001413 ± 0.00028 kPa and 0.001778 ± 0.00036 kPa
416.5 K | 0.001905 ± 0.00038 kPa and 0.001549 ± 0.00031 kPa and 0.001288 ± 0.00026 kPa
417 K | 0.001585 ± 0.00032 kPa and 0.001549 ± 0.00031 kPa
417.5 K | 0.002089 ± 0.00042 kPa and 0.001698 ± 0.00034 kPa
418 K | 0.002138 ± 0.00043 kPa
418.5 K | 0.002399 ± 0.00048 kPa
419 K | 0.002399 ± 0.00048 kPa and 0.002138 ± 0.00043 kPa
420 K | 0.00195 ± 0.00039 kPa and 0.00263 ± 0.00053 kPa
421 K | 0.003388 ± 0.00068 kPa and 0.002138 ± 0.00043 kPa
421.5 K | 0.002138 ± 0.00043 kPa and 0.00302 ± 0.0006 kPa and 0.002951 ± 0.00059 kPa
422 K | 0.002138 ± 0.00043 kPa and 0.002344 ± 0.00047 kPa
422.5 K | 0.003236 ± 0.00065 kPa and 0.00302 ± 0.0006 kPa
423.5 K | 0.002291 ± 0.00046 kPa
424 K | 0.003802 ± 0.00076 kPa
424.5 K | 0.002512 ± 0.0005 kPa and 0.002818 ± 0.00056 kPa
425.5 K | 0.004266 ± 0.00085 kPa
426 K | 0.003981 ± 0.0008 kPa [middle of 5 runs]
427 K | 0.002754 ± 0.00055 kPa
427.5 K | 0.004571 ± 0.00091 kPa and 0.003467 ± 0.00069 kPa
428 K | 0.003236 ± 0.00065 kPa
428.5 K | 0.003388 ± 0.00068 kPa and 0.004677 ± 0.00094 kPa
429 K | 0.005248 ± 0.001 kPa and 0.005129 ± 0.001 kPa
430 K | 0.004365 ± 0.00087 kPa and 0.005248 ± 0.001 kPa and 0.003311 ± 0.00066 kPa
430.5 K | 0.006026 ± 0.0012 kPa
431 K | 0.003715 ± 0.00074 kPa
432 K | 0.006457 ± 0.0013 kPa and 0.006761 ± 0.0014 kPa
432.5 K | 0.004365 ± 0.00087 kPa
433 K | 0.007079 ± 0.0014 kPa
434 K | 0.006026 ± 0.0012 kPa and 0.005495 ± 0.0011 kPa
435.5 K | 0.007943 ± 0.0016 kPa
436 K | 0.005623 ± 0.0011 kPa and 0.008318 ± 0.0017 kPa and 0.005495 ± 0.0011 kPa
437 K | 0.008913 ± 0.0018 kPa
438 K | 0.007586 ± 0.0015 kPa
439 K | 0.01 ± 0.002 kPa
440 K | 0.01096 ± 0.0022 kPa and 0.01072 ± 0.0021 kPa
441 K | 0.00871 ± 0.0017 kPa and 0.007762 ± 0.0016 kPa
